How the values were obtained:
Conditions in all cases: exposure time: 72 h
E57 [1] = patient-derived glioblastoma stem cells of mesenchymal subtype; test: surviving fraction (nuclei count normalised to DMSO); higher = more cells surviving (less toxic)
E28 [2] = patient-derived glioblastoma stem cells of classical subtype; test: as above
E31 [3] = patient-derived glioblastoma stem cells of proneural subtype; test: as above
FT3469 [4] = normal neural stem cell line; test: as above
E21 [5] = patient-derived glioblastoma stem cells of mesenchymal subtype; test: as above
E34 [6] = patient-derived glioblastoma stem cells of proneural subtype; test: as above
E13 [7] = patient-derived glioblastoma stem cells of classical subtype; test: as above
E57 [8] = test: phenotypic distance (Euclidean, principal components) from DMSO controls (arbitrary units); higher = stronger morphological change
E28 [9] = test: as above
E31 [10] = test: as above
FT3469 [11] = test: as above
E21 [12] = test: as above
E34 [13] = test: as above
E13 [14] = test: as above
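For phenotypic distance (Euclidean, principal components) from DMSO controls in this document: cell Painting imaging in 384-well plates, CellProfiler features reduced to at least 20 principal components, Euclidean distance versus same-plate DMSO vehicle wells (0.1% v/v), median over six images per well.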
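For surviving fraction (nuclei count normalised to DMSO) in this document: nuclei counted by high-content imaging of Hoechst-stained cells in laminin-coated 384-well plates, relative to 0.1% DMSO vehicle wells, with staurosporine as cell-death control.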

CC[n+]1c(/C=C/C=C2/N(C)c3ccccc3C2(C)C)sc2ccccc21
Conditions | phenotypic distance | surviving fraction
E13 [7], 4.1 nM | – | 0.616
E13 [7], 12.3 nM | – | 0.567
E13 [7], 37 nM | – | 0.47
E13 [7], 111.1 nM | – | 0.362
E13 [7], 333.3 nM | – | 0.403
E13 [7], 1000 nM | – | 0.361
E13 [7], 3000 nM | – | 0.381
E13 [14], 4.1 nM | 1.39 | –
E13 [14], 12.3 nM | 1.38 | –
E13 [14], 37 nM | 2.78 | –
E13 [14], 111.1 nM | 3.54 | –
E13 [14], 333.3 nM | 3.71 | –
E13 [14], 1000 nM | 3.71 | –
E13 [14], 3000 nM | 3.71 | –
E21 [5], 4.1 nM | – | 0.792
E21 [5], 12.3 nM | – | 0.825
E21 [5], 37 nM | – | 0.652
E21 [5], 111.1 nM | – | 0.54
E21 [5], 333.3 nM | – | 0.471
E21 [5], 1000 nM | – | 0.462
E21 [5], 3000 nM | – | 0.445
E21 [12], 4.1 nM | 1.08 | –
E21 [12], 12.3 nM | 1.6 | –
E21 [12], 37 nM | 2.31 | –
E21 [12], 111.1 nM | 3.28 | –
E21 [12], 333.3 nM | 3.93 | –
E21 [12], 1000 nM | 3.44 | –
E21 [12], 3000 nM | 2.74 | –
E28 [2], 4.1 nM | – | 0.916
E28 [2], 12.3 nM | – | 0.86
E28 [2], 37 nM | – | 0.707
E28 [2], 111.1 nM | – | 0.596
E28 [2], 333.3 nM | – | 0.429
E28 [2], 1000 nM | – | 0.42
E28 [2], 3000 nM | – | 0.307
E28 [9], 4.1 nM | 0.748 | –
E28 [9], 12.3 nM | 0.775 | –
E28 [9], 37 nM | 1.34 | –
E28 [9], 111.1 nM | 1.61 | –
E28 [9], 333.3 nM | 3.13 | –
E28 [9], 1000 nM | 2.8 | –
E28 [9], 3000 nM | 5.04 | –
E31 [3], 4.1 nM | – | 1.03
E31 [3], 12.3 nM | – | 0.703
E31 [3], 37 nM | – | 0.714
E31 [3], 111.1 nM | – | 0.446
E31 [3], 333.3 nM | – | 0.21
E31 [3], 1000 nM | – | 0.229
E31 [3], 3000 nM | – | 0.277
E31 [10], 4.1 nM | 2.01 | –
E31 [10], 12.3 nM | 1.15 | –
E31 [10], 37 nM | 1.51 | –
E31 [10], 111.1 nM | 1.16 | –
E31 [10], 333.3 nM | 3.28 | –
E31 [10], 1000 nM | 4.43 | –
E31 [10], 3000 nM | 3.86 | –
E34 [6], 4.1 nM | – | 0.967
E34 [6], 12.3 nM | – | 0.902
E34 [6], 37 nM | – | 0.834
E34 [6], 111.1 nM | – | 0.572
E34 [6], 333.3 nM | – | 0.552
E34 [6], 1000 nM | – | 0.591
E34 [6], 3000 nM | – | 0.516
E34 [13], 4.1 nM | 1.1 | –
E34 [13], 12.3 nM | 1.65 | –
E34 [13], 37 nM | 1.13 | –
E34 [13], 111.1 nM | 2.37 | –
E34 [13], 333.3 nM | 2.3 | –
E34 [13], 1000 nM | 2.55 | –
E34 [13], 3000 nM | 3.35 | –
E57 [1], 4.1 nM | – | 0.878
E57 [1], 12.3 nM | – | 0.881
E57 [1], 37 nM | – | 0.793
E57 [1], 111.1 nM | – | 0.614
E57 [1], 333.3 nM | – | 0.337
E57 [1], 1000 nM | – | 0.324
E57 [1], 3000 nM | – | 0.294
E57 [8], 4.1 nM | 1.08 | –
E57 [8], 12.3 nM | 0.887 | –
E57 [8], 37 nM | 1.53 | –
E57 [8], 111.1 nM | 2.52 | –
E57 [8], 333.3 nM | 6.37 | –
E57 [8], 1000 nM | 5.7 | –
E57 [8], 3000 nM | 7.93 | –
FT3469 [4], 4.1 nM | – | 0.855
FT3469 [4], 12.3 nM | – | 0.668
FT3469 [4], 37 nM | – | 0.696
FT3469 [4], 111.1 nM | – | 0.627
FT3469 [4], 333.3 nM | – | 0.645
FT3469 [4], 1000 nM | – | 0.622
FT3469 [4], 3000 nM | – | 0.578
FT3469 [11], 4.1 nM | 1.31 | –
FT3469 [11], 12.3 nM | 1.56 | –
FT3469 [11], 37 nM | 1.69 | –
FT3469 [11], 111.1 nM | 1.86 | –
FT3469 [11], 333.3 nM | 1.62 | –
FT3469 [11], 1000 nM | 3.78 | –
FT3469 [11], 3000 nM | 3.43 | –

Clc1ccc(COC(Cn2ccnc2)c2ccc(Cl)cc2Cl)c(Cl)c1 (stereo unspecified) [Miconazole]
Conditions | phenotypic distance | surviving fraction
E13 [7], 4.1 nM | – | 0.787
E13 [7], 12.3 nM | – | 1.01
E13 [7], 37 nM | – | 0.925
E13 [7], 111.1 nM | – | 0.818
E13 [7], 333.3 nM | – | 0.709
E13 [7], 1000 nM | – | 0.814
E13 [7], 3000 nM | – | 0.539
E13 [14], 4.1 nM | 0.853 | –
E13 [14], 12.3 nM | 0.53 | –
E13 [14], 37 nM | 0.487 | –
E13 [14], 111.1 nM | 0.696 | –
E13 [14], 333.3 nM | 1.05 | –
E13 [14], 1000 nM | 1.1 | –
E13 [14], 3000 nM | 2.12 | –
E21 [5], 4.1 nM | – | 0.897
E21 [5], 12.3 nM | – | 1.05
E21 [5], 37 nM | – | 0.979
E21 [5], 111.1 nM | – | 1.01
E21 [5], 333.3 nM | – | 1.02
E21 [5], 1000 nM | – | 0.955
E21 [5], 3000 nM | – | 0.823
E21 [12], 4.1 nM | 0.64 | –
E21 [12], 12.3 nM | 0.477 | –
E21 [12], 37 nM | 0.693 | –
E21 [12], 111.1 nM | 0.637 | –
E21 [12], 333.3 nM | 0.796 | –
E21 [12], 1000 nM | 1.19 | –
E21 [12], 3000 nM | 2.32 | –
E28 [2], 4.1 nM | – | 1.09
E28 [2], 12.3 nM | – | 1.19
E28 [2], 37 nM | – | 1.06
E28 [2], 111.1 nM | – | 1.13
E28 [2], 333.3 nM | – | 1.07
E28 [2], 1000 nM | – | 0.886
E28 [2], 3000 nM | – | 0.537
E28 [9], 4.1 nM | 0.619 | –
E28 [9], 12.3 nM | 0.863 | –
E28 [9], 37 nM | 0.65 | –
E28 [9], 111.1 nM | 0.493 | –
E28 [9], 333.3 nM | 0.784 | –
E28 [9], 1000 nM | 0.766 | –
E28 [9], 3000 nM | 1.23 | –
E31 [3], 4.1 nM | – | 1
E31 [3], 12.3 nM | – | 1.04
E31 [3], 37 nM | – | 1.37
E31 [3], 111.1 nM | – | 0.936
E31 [3], 333.3 nM | – | 1.13
E31 [3], 1000 nM | – | 1.06
E31 [3], 3000 nM | – | 0.976
E31 [10], 4.1 nM | 0.925 | –
E31 [10], 12.3 nM | 0.493 | –
E31 [10], 37 nM | 1.32 | –
E31 [10], 111.1 nM | 0.834 | –
E31 [10], 333.3 nM | 1.3 | –
E31 [10], 1000 nM | 1.07 | –
E31 [10], 3000 nM | 1.51 | –
E34 [6], 4.1 nM | – | 0.9
E34 [6], 12.3 nM | – | 0.972
E34 [6], 37 nM | – | 1
E34 [6], 111.1 nM | – | 0.977
E34 [6], 333.3 nM | – | 1.01
E34 [6], 1000 nM | – | 0.981
E34 [6], 3000 nM | – | 0.82
E34 [13], 4.1 nM | 0.501 | –
E34 [13], 12.3 nM | 0.465 | –
E34 [13], 37 nM | 0.883 | –
E34 [13], 111.1 nM | 0.636 | –
E34 [13], 333.3 nM | 0.903 | –
E34 [13], 1000 nM | 0.701 | –
E34 [13], 3000 nM | 1.2 | –
E57 [1], 4.1 nM | – | 1.04
E57 [1], 12.3 nM | – | 1.09
E57 [1], 37 nM | – | 1.1
E57 [1], 111.1 nM | – | 1.06
E57 [1], 333.3 nM | – | 1.07
E57 [1], 1000 nM | – | 0.918
E57 [1], 3000 nM | – | 0.595
E57 [8], 4.1 nM | 0.349 | –
E57 [8], 12.3 nM | 0.269 | –
E57 [8], 37 nM | 0.652 | –
E57 [8], 111.1 nM | 1.25 | –
E57 [8], 333.3 nM | 0.929 | –
E57 [8], 1000 nM | 1.89 | –
E57 [8], 3000 nM | 3.89 | –
FT3469 [4], 4.1 nM | – | 1.17
FT3469 [4], 12.3 nM | – | 1.07
FT3469 [4], 37 nM | – | 0.966
FT3469 [4], 111.1 nM | – | 0.907
FT3469 [4], 333.3 nM | – | 0.954
FT3469 [4], 1000 nM | – | 0.875
FT3469 [4], 3000 nM | – | 0.492
FT3469 [11], 4.1 nM | 0.444 | –
FT3469 [11], 12.3 nM | 0.593 | –
FT3469 [11], 37 nM | 0.461 | –
FT3469 [11], 111.1 nM | 0.559 | –
FT3469 [11], 333.3 nM | 0.587 | –
FT3469 [11], 1000 nM | 0.791 | –
FT3469 [11], 3000 nM | 2.66 | –

Reference: the supplement of paper PMC13207355
